Source: PubChem BioAssay (NCI)
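96-well plates; 48 h exposure; 5 concentrations. Endpoints by linear interpolation between flanking doses. Not reached: highest tested concentration assigned. TGI: concentration producing complete growth inhibition.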

How the values were obtained:
Test in all cases: NCI tumour cell line growth inhibition, 48 h
UO-31 renal = tested on: UO-31 renal
NCI-H23 lung = tested on: NCI-H23 lung
A549 NSCLC = tested on: A549 NSCLC
786-0 renal = tested on: 786-0 renal
HOP-92 NSCLC = tested on: HOP-92 NSCLC
OVCAR-8 ovarian = tested on: OVCAR-8 ovarian
NCI-H522 lung = tested on: NCI-H522 lung
SR leukemia = tested on: SR leukemia
SNB-78 CNS = tested on: SNB-78 CNS
SK-MEL-5 melanoma = tested on: SK-MEL-5 melanoma
HCC-2998 colon = tested on: HCC-2998 colon
T-47D breast = tested on: T-47D breast
HS 578T breast = tested on: HS 578T breast
EKVX NSCLC = tested on: EKVX NSCLC
KM12 colon = tested on: KM12 colon
HCT-15 colon = tested on: HCT-15 colon
HT29 colon = tested on: HT29 colon
SF-268 CNS = tested on: SF-268 CNS
MCF7 breast = tested on: MCF7 breast
HOP-62 NSCLC = tested on: HOP-62 NSCLC

Cc1nc2ccc(N=Nc3c(O)ccc4ccccc34)cc2[nH]1 gave a TGI (UO-31 renal) greater than 84.8 µM, a TGI (NCI-H23 lung) greater than 100 µM and a TGI (A549 NSCLC) greater than 78.7 µM. The TGI (786-0 renal) was 54.4 µM, the TGI (HOP-92 NSCLC) was 42.8 µM and the TGI (OVCAR-8 ovarian) was 69.6 µM. The TGI (NCI-H522 lung) was 54.3 µM, the TGI (SR leukemia) was 55.4 µM and the TGI (SNB-78 CNS) was greater than 100 µM. For the same molecule, the TGI (SK-MEL-5 melanoma) was greater than 65.1 µM, the TGI (HCC-2998 colon) was greater than 70.5 µM and the TGI (T-47D breast) was 41 µM. It also gave a TGI (HS 578T breast) of 61.9 µM, a TGI (EKVX NSCLC) greater than 83.6 µM and a TGI (KM12 colon) greater than 100 µM. The TGI (HCT-15 colon) was greater than 63.5 µM, the TGI (HT29 colon) was greater than 67.2 µM and the TGI (SF-268 CNS) was greater than 100 µM. For the same molecule, the TGI (MCF7 breast) was 44.9 µM and the TGI (HOP-62 NSCLC) was greater than 100 µM.
